Source: paper PMC2895808 (Vaccine, 2010)
Ends that are not written are not given here.

How the values were obtained:
Assay in all cases: biochemical
[1] = target: HLA A*0202 (Homo sapiens, UniProt P04439, D140Y/D185E/D98H/E176V/E277Q/G131W/G231S/I119L/I121R/I166T/I218V/L180W/L300P/L318F/N151K/N90K/P208A/P217A/Q67R/Q86G/Q94H/R138H/R169H/T345S)
[2] = target: HLA A*6802 (Homo sapiens, UniProt P04439, A269V/D140Y/D185E/E176V/E277Q/E87N/F33Y/G231S/I121R/I166T/I218V/L180W/L300P/L318F/N151K/P208A/P217A/Q86R/R138H/R169H/S129P/T345S/V36M)
[3] = target: HLA A*0203 (Homo sapiens, UniProt P04439, A173T/D140Y/D185E/D98H/E277Q/G131W/G231S/I119V/I121R/I166T/I218V/L180W/L300P/L318F/N151K/N90K/P208A/P217A/Q86G/Q94H/R138H/R169H/T345S)
[4] = target: HLA B*3501 (Homo sapiens, UniProt P01889, A329T/A93T/A95T/C349S/D201E/D98Y/E176V/E187L/E204Q/E69T/I218V/K202T/L119I/Q94N/R155S/R180L/S121R/S35A/S48A/T118I/V127L/V306I/V36M/Y140S/Y91F)
[5] = target: HLA B*0702 (Homo sapiens, UniProt P01889)
[6] = target: HLA B*4201 (Homo sapiens, UniProt P01889, D138N/E176V/E187T/K202T/R180D)
[7] = target: HLA B*3503 (Homo sapiens, UniProt P01889, A329T/A93T/A95T/C349S/D201E/D98Y/E176V/E187L/E204Q/E69T/I218V/K202T/L119I/Q94N/R155S/R180L/S121R/S35A/S48A/T118I/V127L/V306I/V36M/Y140F/Y91F)
[8] = target: HLA B*5101 (Homo sapiens, UniProt P01889, A329T/A93T/A95T/C349S/D138N/D201E/D98Y/E187L/E204Q/E69T/G107R/I218V/K202T/L105A/L119W/N104I/Q94N/R106L/R155S/R180L/S101N/S121T/S35A/S48A/V306I/V36M/Y195H/Y91F)
[9] = target: HLA B*5301 (Homo sapiens, UniProt P01889, A329T/A93T/A95T/C349S/D201E/D98Y/E176V/E187L/E204Q/E69T/G107R/I218V/K202T/L105A/L119I/N104I/Q94N/R106L/R155S/R180L/S101N/S121R/S35A/S48A/T118I/V127L/V306I/V36M/Y140S/Y91F)
[10] = target: HLA B*5401 (Homo sapiens, UniProt P01889, A329T/C349S/D138N/D201E/E176V/E187T/E204Q/E69G/I76V/K202T/L119W/R155S/R180L/S121T/S35A/S48A/V127L/V306I/V36M/Y140L)

Compound | IC50 [1] [µM] | IC50 [2] [µM] | IC50 [3] [µM] | IC50 [4] [µM] | IC50 [5] [µM] | IC50 [6] [µM] | IC50 [7] [µM] | IC50 [8] [µM] | IC50 [9] [µM] | IC50 [10] [µM]
CSCC[C@H](NC(=O)[C@H](Cc1ccccc1)NC(=O)[C@@H](NC(=O)[C@@H](NC(=O)[C@H](Cc1ccccc1)NC(=O)[C@@H](NC(=O)[C@@H](N)C(C)C)C(C)C)C(C)C)C(C)C)C(=O)NCC(=O)N[C@H](C(=O)O)C(C)C [Peptide 7103.0001] | 3.45 | 0.039 | – | – | – | – | – | – | – | –
CC(C)C[C@H](NC(=O)[C@H](Cc1ccccc1)NC(=O)[C@@H](NC(=O)[C@@H](NC(=O)[C@H](Cc1ccccc1)NC(=O)[C@@H]1CCCN1C(=O)[C@@H](NC(=O)[C@H](CC(C)C)NC(=O)[C@@H](N)Cc1ccccc1)C(C)C)C(C)C)C(C)C)C(=O)O [Peptide 7103.0003] | < 0.0001 | 0.0015 | 0.00011 | – | – | – | – | – | – | –
HPGSVNEFDF [HF10] | – | – | – | 2.09 | 3.62 | 0.877 | 11.5 | 14.7 | 5.52 | 0.854
